According to patent US11008549B2, “In vitro model for a tumor microenvironment” (HemoShear, LLC, priority 2013, dated 2021):
Read-outs that look alike come from different tables or passages of the source.

Columns and labels:
[1] = system: primary rat hepatocytes; assay: Gluconeogenesis assay (AMPLEX RED glucose in supernatant); assay type: cell-based; details: 4 hours; for Effect (% Change) on glucose levels: insulin 2 nM or glucagon 100 nM; for decreased glucose levels by: insulin 2 nM
[2] = cited from earlier work; for in vivo Cmax level achieved in humans: human; for Cmax: steady state plasma Cmax, patients, established therapeutic dosing
[3] = system: A549 tumor cells; assay: Growth of A549 tumor cells in tri-cultures under tumor capillary hemodynamics (PICOGREEN cell number); assay type: cell-based; details: drug at human Cmax, day seven, tri-culture without exogenous ECM, hemodynamic flow and transport, vs vehicle
Description: The vehicle control or drug was added to the inflow media for the endothelial cell layer and perfused into the upper volume. Tri-cultures were maintained in the presence of absence of drugs for up to seven days under hemodynamic flow and transport. Cell number was determined at day seven using the QUANT-IT PICOGREEN dsDNA Assay Kit according to the manufacturer's instructions (Life Technologies, Grand Island, N.Y.).

[4] = system: A549 cells; details: static 2D cultures, cited from earlier work
[5] = system: primary human hepatocytes; details: 72 h
Description: MTT Assay: To assess toxicity responses of human hepatocytes, the cells were plated and cultured in the cone-and-plate devices under hemodynamic conditions using the operating conditions described above or were cultured under static conditions (controls) for 7 days before being exposed to either 0.1% DMSO or known toxic drug chlorpromazine (0.1 μM, 1 μM and 10 μM) for 72 hours. Hepatocytes were then incubated with medium containing lmg/ml of MTT reagent (thiazolyl blue tetrazolium bromide) for 1 hour, following which the cells were lysed in DMSO to release the formazan blue dye formed. The solution was transferred to a 96 well plate and the absorbance was read at 595 nm.

[6] = system: primary human hepatocytes; details: 72 h, 1 μM
Description: RT-PCR: Changes in metabolic, toxic, and insulin/glucose/lipid pathway genes were assessed by extracting RNA from hepatocytes from devices run under healthy and steatotic conditions at the end of the culture period (7 or 14 days) and performing RT-PCR on this RNA. The […] were removed from the devices and washed with PBS prior to scraping the cells off the porous membrane. Total RNA was isolated using a […] RNA Mini Kit (a kit for purification of total RNA from cells) and reverse transcribed to cDNA using the ISCRIPT cDNA Synthesis Kit (a cDNA synthesis kit). Primers were designed for the metabolic genes CYP1A1, CYP1A2, CYP3A2, MDR, and GST as well as the insulin/glucose/lipid pathway genes GPAT, ACC1, IRS-2, PPAR-γ, SREBP, ChREBP, LXR, SCD1, CPT1. Primer sequences are shown below in Table 3:
RNA expression was analyzed by real-time RT-PCR using IQ SYBR Green Supermix (a PCR reagent mixture for RT-PCR) and a CFX96 Real-Time System with C1000 Thermal Cycler (an RT-PCR detection system and thermal cycler). RNA data were normalized to endogenous expression of β2-microglobulin and reported as a relative quantity compared to healthy cultures.
Human genes assessed for metabolism and toxicity experiments included CYP1A1. CYP2A6, CYP2B6, CYP2C9, CYP2D6, CYP3A4, CYP3A5, GSTA1, UGT1A1, GSR, SORD, TXNRD1, and APEX1.
Cryopreserved primary human hepatocytes thawed and plated as described above were cultured in the cone-and-plate devices under controlled hemodynamics or were cultured under static conditions (controls) for 7 days before being exposed to different concentrations of chlorpromazine (0.1 μM, 1 μM, and 10 μM) or vehicle control for 72 hours. Live-dead staining was performed on the hepatocytes with ethidium-calcein stain. Hepatocytes were also incubated with MTT reagent for 1 hour to assess viability. RNA was extracted from additional segments and RT-PCR was performed to assess selected toxicity and metabolic genes.

[7] = system: primary rat hepatocytes; details: 4 h, 1 μM
Description: The hepatocytes were then washed with PBS and incubated with serum free hepatocyte medium with or without known toxic drug chlorpromazine (CPZ) at two different concentrations (1 μM and 10 μM) for 4 hours. Supernatants from the cells were collected and microRNA extraction was performed using the [sequence] serum/plasma kit (a kit for extracting microRNA, Qiagen). The cDNA was prepared by using the [sequence] RT kit (a kit for preparing cDNA, Qiagen) and samples quantified using the [sequence] SYBR GREEN PCR kit (a kit for quantifying cDNA, Qiagen), following the manufacturer's instructions.
Primary rat hepatocytes isolated and plated as described above were cultured in the cone-and-plate devices under controlled hemodynamic conditions or were cultured under static conditions (controls) for 7 days. The hepatocytes were washed with PBS and immediately incubated with either vehicle (distilled water) or chlorpromazine (1 μM) for 4 hours.

[8] = system: cytochrome p450 3A; assay: Cytochrome p450 3A activity (P450-GLO) in rat hepatocytes after inducer; assay type: in vitro ADME; details: controlled hemodynamics, dexamethasone 02.5 μM, 48 hours, day 7
Description: (§1) Cytochrome Activity Assays: Hepatocytes were cultured in the cone-and-plate devices under static or controlled hemodynamic conditions for five days, and then treated with 0.1% dimethyl sulfoxide (DMSO) or known inducers of cytocrhome enzymesβ-methylcholanthrene and dexamethasone) for 48 hours. Porous membrane segments roughly 2 cm^2 in area were excised and transferred to standard 24-well plates alongside corresponding static cultures. The cells were incubated with 500 μl of hepatocyte media containing substrates from commercially available P450-GLO kits (kits for luminescent cytochrome p450 assays) at the manufacturer-recommended concentrations. After 4 hours, the media was transferred to 96-well plates and assayed for luminescent metabolites to reflect cytochrome p450 activity as per the manufacturer protocol.
(§2) To validate that the increase in metabolic genes and proteins translated to changes in metabolic activity, primary rat hepatocytes were cultured as described earlier in the cone-and-plate devices under controlled hemodynamics (0.6 dynes/cm^2) and in static collagen gel cultures. […]

[9] = system: primary rat hepatocytes; assay: Toxicity of inducer concentration to rat hepatocytes under controlled flow; assay type: cell-based; details: 50 μM, concentration recommended for inducing static cultures
Description: As a result the concentration of the dexamethasone was decreased to 1 μg/ml in order to get an inductive response, a level that correlates well with plasma concentrations seen in vivo in rats.

[10] = steady state plasma Cmax at therapeutic doses in mice, read-out: Mouse Cmax, cited from earlier work
[11] = system: primary rat hepatocytes; assay: Gene expression of oxidative stress-related genes, MRP3 and MRP4 in rat hepatocytes; assay type: cell-based; details: controlled hemodynamic conditions, in vivo/clinical plasma Cmax concentrations
Description: (§3) RT-PCR: Changes in metabolic, toxic, and insulin/glucose/lipid pathway genes were assessed by extracting RNA from hepatocytes from devices run under healthy and steatotic conditions at the end of the culture period (7 or 14 days) and performing RT-PCR on this RNA. The [sequence] were removed from the devices and washed with PBS prior to scraping the cells off the porous membrane. Total RNA was isolated using a [sequence] RNA Mini Kit (a kit for purification of total RNA from cells) and reverse transcribed to cDNA using the ISCRIPT cDNA Synthesis Kit (a cDNA synthesis kit). Primers were designed for the metabolic genes CYP1A1, CYP1A2, CYP3A2, MDR, and GST as well as the insulin/glucose/lipid pathway genes GPAT, ACC1, IRS-2, PPAR-γ, SREBP, ChREBP, LXR, SCD1, CPT1.

[12] = system: primary rat hepatocytes; assay: CDFDA/CDF bile canalicular imaging (cholestatic changes); assay type: cell-based; details: controlled hemodynamic conditions, 48 hours
Description: For imaging of the biliary activity at canalicular junctions, sections of the porous membrane of the TRANSWELL were washed with PBS and incubated with media containing 10 μM carboxy-2,7-dichlorofluorescein diacetate (CDFDA) for 10 minutes. Samples were then washed with PBS and placed on glass slide for confocal imaging.
The hepatocytes were washed with PBS and immediately incubated with the substrate 10 uM carboxy-2,7-dichlorofluorescein diacetate (CDFDA). The cells were imaged by confocal microscopy during a 20-min exposure to the nonfluorescent substrate CDFDA to allow for the hydrolysis of the substrate to the highly fluorescent Mrp-2 substrate carboxy-2,7-dichlorofluorescein (CDF) and its active secretion into the bile canalicular structures.

[13] = system: cytochrome p450 1A/1B; assay: Cytochrome p450 1A/1B activity (P450-GLO) in rat hepatocytes after inducer; assay type: in vitro ADME; details: controlled hemodynamics, 3-MC 0.1 μM, 48 hours, day 7
Description: as §1, §2

[14] = system: rat hepatocytes; assay: In vitro fatty liver model, total triglycerides; assay type: cell-based; details: 1.5 μM, high insulin/glucose fatty liver media, controlled hemodynamics, day 7
Description: After 1 hour, the [sequence] were inverted and placed into cell culture dishes, and media was added (9 ml in the lower volume and 6 ml in the upper volume). After 24 hours (i.e., on day 2 of the experiments), the media was changed to maintenance media (the healthy or fatty liver media described above) and the Petri dishes were placed in the cone-and-plate hemodynamic flow device, and controlled hemodynamics were applied to the surface of the porous membrane of the [sequence] in the upper volume. […] The cells were cultured under controlled hemodynamics until day 7, when hepatocytes were examined using the assays described below.
At the end of the treatment period, cells were collected from the porous membranes by scraping with a rubber policeman and PBS, after which they were centrifuged (2,000×g for 10 minutes at 4° C.). The cell pellets were resuspended in 100 μl of cold diluted Standard Diluent from the triglyceride assay kit and sonicated 20 times at one second bursts. The cell suspension was then centrifuged at 10,000×g for 10 minutes at 4° C. The supernatant was removed and used for the assay as per the manufacturer's protocol and normalized to protein content from the same samples. […]

[15] = system: rat hepatocytes; assay: In vitro fatty liver model, metabolic gene expression (RT-PCR); assay type: cell-based; details: 1.5 μM, high insulin/glucose fatty liver media, controlled hemodynamics, day 7
Description: as §3
After 1 hour, the [sequence] were inverted and placed into cell culture dishes, and media was added (9 ml in the lower volume and 6 ml in the upper volume). After 24 hours (i.e., on day 2 of the experiments), the media was changed to maintenance media (the healthy or fatty liver media described above) and the Petri dishes were placed in the cone-and-plate hemodynamic flow device, and controlled hemodynamics were applied to the surface of the porous membrane of the [sequence] in the upper volume. […]

[16] = No substrate, controlled hemodynamics
[17] = substrate Glycerol 2 mM, controlled hemodynamics
[18] = substrate Lactate/Pyruvate (20 mM/2 mM), controlled hemodynamics

OCC(O)CO [Glycerol, glycerol]
glucose produced by the hepatocytes increased in the presence of the substrate ([1]; glycerol 2 mM, controlled hemodynamics): 67%

glucagon
Effect (% Change) on glucose levels [1, 16]: +51% | increased glucose levels by ([1]; absence of a substrate, glucagon 100 nM): 51% | Effect (% Change) on glucose levels [1, 17]: +15% | Effect (% Change) on glucose levels [1, 18]: +80% | increased glucose levels by further ([1]; substrate glycerol, glucagon 100 nM): 15% | increased glucose produced by ([1]; substrates lactate and pyruvate, glucagon 100 nM): 80%

N.N.O=C([O-])C1(C(=O)[O-])CCC1.[Pt+2] [carboplatin]
in vivo Cmax level achieved in humans [2]: 37000 ng/mL

Cn1cnc2c(F)c(Nc3ccc(Br)cc3Cl)c(C(=O)NOCCO)cc21 [AZD6244/Selumetinib, Selumetinib]
inhibited A549 growth [3]: 78% | Cmax [2]: 1400 nM | IC50 [4]: 5 µM

CN(C)CCCN1c2ccccc2Sc2ccc(Cl)cc21 [chlorpromazine]
toxicity ([5]; 1 μM): 30.3% | toxicity ([5]; 10 μM): 46.4% | upregulation of APEX nuclease (multifunctional DNA repair enzyme) [6]: 2.8 fold | upregulation of glutathione reductase (GSR) [6]: 8.3 fold | upregulation of sorbitol dehydrogenase (SORD) [6]: 6.9 fold | upregulation of thioredoxin reductase 1 (TXNRD1) [6]: 5.5 fold | miRNA 122 levels in the supernatants compared to vehicle controls [7]: did not cause any change in miRNA 122 levels | miRNA 122 released into supernatant, over vehicle controls [7]: 6 fold

C[C@@H]1C[C@H]2[C@@H]3CCC4=CC(=O)C=C[C@]4(C)[C@@]3(F)[C@@H](O)C[C@]2(C)[C@@]1(O)C(=O)CO [Dexamethasone, dexamethasone]
3A response (cytochrome p450 activity normalized to ATP) [8]: 57.53 | toxicity in the controlled flow system [9]: toxic

N.N.[Cl][Pt][Cl] [Cisplatin, cisplatin]
inhibited A549 growth [3]: 48% | Cmax [2]: 3000 nM | Cmax ([10]; listed as cisplatin): > 10000 nM | Cmax [10]: > 10000 nM | IC50 ([4]; listed as cisplatin): > 6 µM | IC50 [4]: > 6 µM

Cc1c(C)c2c(c(C)c1O)CCC(C)(COc1ccc(CC3SC(=O)NC3=O)cc1)O2 (centres unmarked) [troglitazone]
gene expression associated with toxic response [11]: upregulation of oxidative stress-related genes and compensatory upregulation of MRP3 and MRP4 genes | changes in bile canalicular pattern ([12]; 4 uM): changes in the canalicular pattern with visibly dilated canalicular structures | changes in bile canalicular pattern ([12]; 40 uM): much more prominent and extensive

insulin
Effect (% Change) on glucose levels [1, 16]: −27% | decreased glucose levels by ([1]; absence of a substrate): 27% | Effect (% Change) on glucose levels [1, 17]: −38% | Effect (% Change) on glucose levels [1, 18]: −25% | decreased glucose levels by ([1]; substrate glycerol): 38% | decreased glucose levels by ([1]; substrates lactate and pyruvate): 25%

Cc1ccc2cc3c(ccc4ccccc43)c3c2c1CC3 [3-MC, 3-Methyl Cholanthrene]
1A/1B response (cytochrome p450 activity normalized to ATP) [13]: 133.06

C#Cc1cccc(Nc2ncnc3cc(OCCOC)c(OCCOC)cc23)c1 [erlotinib]
in vivo Cmax level achieved in humans [2]: 1000 ng/mL

CCc1ccc(CCOc2ccc(CC3SC(=O)NC3=O)cc2)nc1 (centres unmarked) [pioglitazone]
total triglyceride content of hepatocytes [14]: reduced total triglyceride content | expression of metabolic genes such as Cyp3A2 [15]: restored the expression of metabolic genes

NC1(c2ccc(-c3nc4ccn5c(=O)[nH]nc5c4cc3-c3ccccc3)cc2)CCC1 [MK2206]
inhibited A549 growth [3]: 44% | Cmax [2]: 160 nM | Cmax [10]: 540 nM | IC50 [4]: 3 µM
